ChEMBL document CHEMBL1145548, “Selective plasma protein binding of antimalarial drugs to alpha1-acid glycoprotein” (Bioorg Med Chem, 2008)

Experiments:
Albumin [1] = biological target: T1, Albumin (Homo sapiens, UniProt P02768); assay: Binding affinity to human serum albumin on sepharose column by affinity chromatography; assay type: ADME; details: isolated protein
[2] = biological target: Alpha-1-acid glycoprotein 1 (Homo sapiens, UniProt P02763); assay: Binding affinity to human ORM1 at 37 degC by induced circular dichroism method
Sequence of Alpha-1-acid glycoprotein 1 (P02763 whole entry): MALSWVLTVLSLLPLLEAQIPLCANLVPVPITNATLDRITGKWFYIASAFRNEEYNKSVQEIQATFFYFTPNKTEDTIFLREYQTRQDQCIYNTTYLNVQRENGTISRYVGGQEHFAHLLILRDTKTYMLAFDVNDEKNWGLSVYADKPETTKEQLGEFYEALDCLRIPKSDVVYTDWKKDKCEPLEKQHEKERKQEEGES

Homo sapiens [3] = species on record: Homo sapiens; assay: Binding affinity to human AAG at 37 degC by induced circular dichroism method
Homo sapiens [4] = species on record: Homo sapiens; assay: Displacement of quinaldine red from human AAG by fluorescence method
Albumin [5] = biological target: T1, Albumin; assay: Binding affinity to human serum albumin by circular dichroism and UV/VIS spectroscopic method; assay type: ADME; details: isolated protein
Homo sapiens [6] = species on record: Homo sapiens; assay: Binding affinity to human AAG by fluorescence emission spectra
Homo sapiens [7] = species on record: Homo sapiens; assay: Binding affinity to human AAG at 23 degC by induced circular dichroism method
Albumin [8] = biological target: T1, Albumin; assay: Binding affinity to human serum albumin by fluorescence emission spectra; assay type: ADME; details: isolated protein
[9] = biological target: Alpha-1-acid glycoprotein 2 (Homo sapiens, UniProt P19652); assay: Binding affinity to human ORM2 at 37 degC by induced circular dichroism method
Sequence of Alpha-1-acid glycoprotein 2 (P19652 whole entry): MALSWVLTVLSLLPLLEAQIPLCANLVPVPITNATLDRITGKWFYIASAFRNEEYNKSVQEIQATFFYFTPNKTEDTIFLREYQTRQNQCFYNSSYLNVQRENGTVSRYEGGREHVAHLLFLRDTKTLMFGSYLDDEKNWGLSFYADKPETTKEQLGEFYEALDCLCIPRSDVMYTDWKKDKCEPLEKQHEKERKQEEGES

T1 sequence (P02768 whole entry): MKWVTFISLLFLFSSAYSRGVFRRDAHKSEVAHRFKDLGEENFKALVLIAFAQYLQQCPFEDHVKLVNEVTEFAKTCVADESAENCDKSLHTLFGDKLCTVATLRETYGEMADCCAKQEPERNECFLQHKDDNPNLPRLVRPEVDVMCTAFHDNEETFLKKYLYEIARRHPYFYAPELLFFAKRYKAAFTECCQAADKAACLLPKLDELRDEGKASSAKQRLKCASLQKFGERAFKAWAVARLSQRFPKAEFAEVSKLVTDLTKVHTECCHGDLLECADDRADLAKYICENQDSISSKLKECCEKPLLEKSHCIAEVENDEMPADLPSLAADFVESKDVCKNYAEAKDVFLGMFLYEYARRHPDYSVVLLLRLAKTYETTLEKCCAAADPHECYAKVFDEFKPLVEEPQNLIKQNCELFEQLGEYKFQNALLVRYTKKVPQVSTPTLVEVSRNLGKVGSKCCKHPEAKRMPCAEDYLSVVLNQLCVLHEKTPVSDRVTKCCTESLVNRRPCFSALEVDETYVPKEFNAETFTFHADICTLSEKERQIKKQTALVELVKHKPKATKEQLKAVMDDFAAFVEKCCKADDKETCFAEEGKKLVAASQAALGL

SMILES	Ka (Albumin [1])	Ka (Homo sapiens [4])	also measured
CCN(CC)CCCC(C)Nc1c2ccc(Cl)cc2nc2ccc(OC)cc12 (stereo not given) [QUINACRINE]	7 10^3/M	–	–
CCN(CC)Cc1cc(Nc2ccnc3cc(Cl)ccc23)ccc1O.Cl.Cl.Cl	–	–	Ka [2]: 5.8 10^4/M
CC(=O)O[C@H]1N=C(c2ccccc2Cl)c2cc(Cl)ccc2NC1=O	2 10^4/M	–	–
CCN(CC)Cc1cc(Nc2ccnc3cc(Cl)ccc23)ccc1O	–	1.1 10^5/M	Ka (Homo sapiens [3]): 4.8 10^4/M
CC(=O)O[C@H]1N=C(c2ccccc2)c2cc(Cl)ccc2NC1=O	1 10^4/M	–	–
OC(c1cc(C(F)(F)F)nc2c(C(F)(F)F)cccc12)C1CCCCN1 (stereo not given) [MEFLOQUINE]	8 10^4/M	8.7 10^5/M	–
CCN(CC)CCCC(C)Nc1ccnc2cc(Cl)ccc12 (stereo not given) [CHLOROQUINE]	2 10^3/M	0.3 10^5/M	–
CC(=O)O[C@@H]1N=C(c2ccccc2)c2cc(Cl)ccc2NC1=O	8 10^4/M	–	–
COc1cc(NC(C)CCCN)c2ncccc2c1 (stereo not given)	–	4.2 10^5/M	Ka (Homo sapiens [3]): 4.1 10^5/M
COc1cc(C)c2c(Oc3cccc(C(F)(F)F)c3)c(OC)cc(NC(C)CCCN)c2n1 (stereo not given) [TAFENOQUINE]	3 10^5/M	1.8 10^6/M	Ka (Albumin [5]): 24000 M⁻¹; Ka (Homo sapiens [3]): 3.3 10^5/M; Ka (Homo sapiens [6]): 1.6 10^6/M; Ka (Homo sapiens [7]): 1.1 10^6/M; Ka (Albumin [8]): 3 10^5/M
COc1cc(NC(C)CCCN)c2ncccc2c1 (stereo not given) [PRIMAQUINE]	7 10^3/M	–	–
CC#C[C@]1(O)CC[C@H]2[C@@H]3CCC4=CC(=O)CCC4=C3[C@@H](c3ccc(N(C)C)cc3)C[C@@]21C	–	4 10^6/M	–
CCN(CC)CCCC(C)Nc1c2ccc(Cl)cc2nc2ccc(OC)cc12.Cl.Cl (stereo not given) [QUINACRINE DIHYDROCHLORIDE]	–	–	Ka [9]: 3.7 10^5/M
CC(=O)O[C@@H]1N=C(c2ccccc2Cl)c2cc(Cl)ccc2NC1=O	4 10^4/M	–	–
CN(C)CCCN1c2ccccc2Sc2ccc(Cl)cc21	–	8.4 10^5/M	–
COc1cc(NC(C)CCCN)c2ncccc2c1.O=P(O)(O)O.O=P(O)(O)O (stereo not given) [PRIMAQUINE PHOSPHATE]	–	–	Ka [2]: 8 10^5/M
CCN(CC)CCCC(C)Nc1c2ccc(Cl)cc2nc2ccc(OC)cc12 (stereo not given)	–	–	Ka (Homo sapiens [3]): 2.3 10^5/M
CC(C)NCC(O)COc1cccc2ccccc12 (racemic)	–	1.5 10^5/M	–
CCN(CC)Cc1cc(Nc2ccnc3cc(Cl)ccc23)ccc1O.Cl	2 10^4/M	–	Ka (Albumin [5]): 6200 M⁻¹
